According to patent publication US20250332173A1, “COMPOUNDS AND METHODS FOR MODULATING NUCLEIC ACID SPLICING” (REMIX THERAPEUTICS INC., priority 2021, published 2025):
Like-named read-outs stand apart in the source and are kept apart here.

What was measured:
[1] = test system: MYB; experiment: HiBiT protein abundance assay, MYB HiBiT K562 cell line; assay type: cell-based, human; settings: HiBiT K562 cell line, 24 hours, top dose 10 μM; read-out: Effect on protein abundance, MYB (IC50 category)
Method: (§1) Compounds described herein were used to screen for effects on quantitative protein abundance using a HiBit assay system (Promega). Quantitative protein abundance was determined by measuring the protein levels of HiBit-tagged protein targets expressed in cell culture via luminescence using the Nano-Glo HiBiT Lytic Detection System, which uses a split complementation assay format to reconstitute NanoBiT enzyme to generate a luminescent signal. A protein abundance assay was developed such that endogenous protein targets could be modified with the HiBiT peptide tag and their abundance could be assessed after compound treatment. Briefly, K562 cell lines containing a HiBiT-modification were treated with various compounds described herein (e.g., compounds of Formulas (I), (II), (III), (IV), (V), (VI), (VII), (VIII), or (IX)). After treatment for 24 hours, the protein abundance of a specific target was determined by measuring luminescence.
(§2) • Promega Nano-Glo HiBiT Lytic Detection System (cat #N3030) • Corning 384-well TC-treated microplates (cat #3570) • Synthego Engineered Cells Knock-In Clones
(§3) Cells were maintained in IMDM with 10% FBS. Before the assay, cells were diluted with […] growth media (IMDM+[…] media) and were seeded in a 384-well plate at a density of 10,000 cells/well (for each cell line listed in Table 5). Each compound was prepared as a 10-point 3-fold serial dilution in DMSO with the top dose at a final concentration of 10 μM in the well. Unmodified K562 cells were added at the previously specified density with DMSO to serve as an assay baseline and positive control (PC) and DMSO only with the respective modified cell lines was added to the negative control (NC) columns. Final DMSO concentration was kept at or below 0.25%. Treated cell plates were placed in an incubator at 37° C. with […] for 24 hours. After 24 hours, 25 μL of Complete HiBit Lytic reagent was added to each well at room temperature (e.g. one plate requiring 10 mL Lytic Buffer, 100 μL LgBiT Protein, 200 μL Lytic Substrate), shaken for 5 minutes at 600 RPM, then left to sit for 10 minutes for signal to stabilize before reading on a Spark Cyto plate reader (Tecan) with a 500 ms measurement time.
(§4) To determine compound effects on protein abundance of each target in Table 5, the percent response for each respective cell line was calculated at each compound concentration as follows:
(§5) For the normalized response at each concentration, a four-parameter logistical regression was fit to the data and the response was interpolated at the […] to determine a concentration for protein abundance at […] the untreated control.

[2] = test system: HTT; experiment: HiBiT protein abundance assay, HTT HiBiT K562 cell line; assay type: cell-based, human; settings: HiBiT K562 cell line, 24 hours, top dose 10 μM; read-out: Effect on protein abundance, HTT (IC50 category)
Method: as §1, §2, §3, §4, §5

[3] = test system: K562 (human chronic myelogenous leukemia) cells; experiment: Cell Titer Glo 2.0 cell viability assay; assay type: cell-based; settings: Homo sapiens, K562, 72 h, K562 cells, 72 hours, Cell Titer Glo 2.0; read-out: K562 GI50
[4] = test system: Target C; experiment: HiBiT protein abundance assay, Target C (Promega Nano-Glo HiBiT Lytic Detection System, knock-in K562 cell line); assay type: cell-based, human; settings: Homo sapiens, K562, 24 h, HiBiT K562 cell line, 24 hours, top dose 10 μM; read-out: Effect on protein abundance, Target C (IC50 category)
Method: as §2, §3, §4, §5

[5] = test system: HTT mRNA; experiment: RT-qPCR splicing assay, HTT canonical junction (CJ) and alternative junction (AJ) mRNA; assay type: cell-based, human; settings: Homo sapiens
Procedure, shortened: (§6)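 24 h treatment, 37 °C/5% CO2; A673 or K562; 11-pt 3-fold series, top 10 uM final; DMSO ≤0.25%. Cell lysis with DNase I, then 1-step RT-qPCR. Housekeeping normalization: PPIA (A673), GAPDH or GUSB (K562).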

[6] = test system: MYB mRNA; experiment: RT-qPCR splicing assay, MYB canonical junction (CJ) and alternative junction (AJ) mRNA; assay type: cell-based, human; settings: Homo sapiens
Procedure, shortened: as §6

[7] = test system: SMN2 mRNA; experiment: RT-qPCR splicing assay, SMN2 canonical junction (CJ) mRNA; assay type: cell-based, human; settings: Homo sapiens; Table 5 panel; canonical junction qPCR; compound concentration having 50% response in CJ decrease; read-out: SMN2 IC50 (decrease in CJ mRNA levels)
Procedure, shortened: (§7)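 Canonical exon-exon junction transcript levels measured by one-step RT-qPCR of cell lysates, normalized to a housekeeping gene (GAPDH, GUSB or PPIA). Cells used were A673 or K562, exposed for 24 h to compound in 11-point, 3-fold series from 10 uM, with final DMSO at or below 0.25%.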

[8] = test system: Target C; experiment: RT-qPCR splicing assay panel, Target C canonical junction (CJ) mRNA; assay type: cell-based, human; settings: Homo sapiens; Table 5 panel; canonical junction qPCR; compound concentration having 50% response in CJ decrease; read-out: Target C IC50 (decrease in CJ mRNA levels)
Procedure, shortened: as §7

Compound | IC50 [1] [nM] | IC50 [2] [nM] | GI50 [3] [nM] | IC50 [4] [nM] | IC50 ([5]; decrease in HTT canonical junction (CJ) mRNA, RT-qPCR, read-out: HTT CJ IC50) [nM] | AC50 ([5]; increase in HTT alternative junction (AJ) mRNA, RT-qPCR, read-out: HTT AJ AC50) [nM] | IC50 ([5]; Table 5 panel, canonical junction qPCR, compound concentration having 50% response in CJ decrease, read-out: HTT IC50 (decrease in CJ mRNA levels)) [nM] | IC50 ([6]; Table 5 panel, canonical junction qPCR, compound concentration having 50% response in CJ decrease, read-out: MYB IC50 (decrease in CJ mRNA levels)) [nM] | IC50 ([6]; decrease in MYB canonical junction (CJ) mRNA, RT-qPCR, read-out: MYB CJ IC50) [nM] | AC50 ([6]; increase in MYB alternative junction (AJ) mRNA, RT-qPCR, read-out: MYB AJ AC50) [nM] | IC50 [7] [nM] | IC50 [8] [nM]
Cc1c(O)c(-c2ncc3c(=O)n(C4CC5CC4CN5)ccc3n2)cc2cn(C)nc12 (stereo not shown) [Compound 1325] | 100 to 1000 | 100 to 1000 | 100 to 1000 | 1000 to 10000 | – | – | – | – | – | – | – | –
Cc1nc2c(o1)CN(c1cc(F)c3c(=O)n(C4CCNCC4)cnc3c1)CC2 [Compound 508, 5-fluoro-7-{2-methyl-4H,6H,7H-[1,3]oxazolo[5,4-c]pyridin-5-yl}-3-(piperidin-4-yl)quinazolin-4-one; trifluoroacetic acid] | 1000 to 10000 | > 10000 | > 10000 | > 10000 | – | – | – | – | – | – | – | –
Cc1cn2cc(-c3cc(O)c4c(=O)n(C5CCNC5)cnc4c3)cc(C#N)c2n1 (stereo not shown) [Compound 507, 6-[5-hydroxy-4-oxo-3-(pyrrolidin-3-yl)quinazolin-7-yl]-2-methylimidazo[1,2-a]pyridine-8-carbonitrile; trifluoroacetic acid] | 1000 to 10000 | > 10000 | 1000 to 10000 | 1000 to 10000 | – | – | – | – | – | – | – | –
Cn1cc2nc(-c3cc(O)c4c(=O)n(C5CCNC6(CC6)C5)ncc4c3)ccc2n1 (stereo not shown) [Compound 562] | 100 to 1000 | 100 to 1000 | 100 to 1000 | 100 to 1000 | – | – | – | – | – | – | – | –
COc1cc2c(=O)n(C3CCNCC3)cnc2cc1-c1cc(C)c2nc(C)cn2n1 [Compound 504, 7-{2,8-dimethylimidazo[1,2-b]pyridazin-6-yl}-6-methoxy-3-(piperidin-4-yl)quinazolin-4-one] | > 10000 | > 10000 | > 10000 | > 10000 | – | – | – | – | – | – | – | –
Cc1cn2nc(-c3cc(O)c4c(=O)n([C@H]5CCNC6(CC6)C5)ncc4c3)cc(C)c2n1 [Compound 469] | < 100 | < 100 | < 100 | < 100 | – | – | – | – | – | – | – | –
Cc1cn2nc(-c3cc(F)c4c(=O)n(C5CCNCC5)cnc4c3)cc(C#N)c2n1 [Compound 501] | < 100 | < 100 | 100 to 1000 | < 100 | – | – | – | – | – | – | – | –
Cc1c(O)c(-c2ncc3c(=O)n([C@H]4[C@@H]5CNC[C@@H]54)ccc3n2)cc2cn(C)nc12 [Compound 1326] | < 100 | 100 to 1000 | 100 to 1000 | 100 to 1000 | – | – | – | – | – | – | – | –
Cc1c(O)c(-c2ncc3c(=O)n(C4CCC(N)C4)ccc3n2)cc2cn(C)nc12 (stereo not shown) [Compound 1321] | 100 to 1000 | 100 to 1000 | 100 to 1000 | 1000 to 10000 | – | – | – | – | – | – | – | –
Cc1cn2nc(-c3cc(F)c4c(=O)n(C5CCN(C)C6(CC6)C5)ncc4c3)cc(C)c2n1 (stereo not shown) [Compound 565] | < 100 | < 100 | 100 to 1000 | < 100 | – | – | – | – | – | – | – | –
Cc1cn2nc(-c3ccc4c(=O)c(C5CCNCC5)cn(C)c4c3)cc(C)c2n1 [Compound 590] | 100 to 1000 | 1000 to 10000 | 1000 to 10000 | 1000 to 10000 | – | – | – | – | – | – | – | –
Cc1cn2cc(-c3ccc4c(=O)c(C5CCNCC5)cn(C)c4c3)nc(C)c2n1 [Compound 591] | 1000 to 10000 | > 10000 | 1000 to 10000 | > 10000 | – | – | – | – | – | – | – | –
Cc1cn2cc(-c3ccc4c(=O)n(C5CCNCC5)ccc4n3)cc(F)c2n1 [Compound 1230, 2-(8-fluoro-2-methylimidazo[1,2-a]pyridin-6-yl)-6-(piperidin-4-yl)-1,6-naphthyridin-5(6H)-one] | < 100 | < 100 | < 100 | 100 to 1000 | – | – | – | – | – | – | – | –
Cn1cc2cc(-c3ccc4c(=O)n([C@H]5CCNC6(CC6)C5)ccc4n3)c(O)cc2n1 [Compound 1245] | < 100 | < 100 | 100 to 1000 | < 100 | – | – | – | – | – | – | – | –
Cc1cn2nc(-c3cc(O)c4c(=O)n(C5CCNC6(CC6)C5)ccc4c3)cc(C)c2n1 (stereo not shown) [Compound 466, 6-(2,8-dimethylimidazo[1,2-b]pyridazin-6-yl)-8-hydroxy-2-(4-azaspiro[2.5]octan-7-yl)isoquinolin-1(2H)-one] | < 100 | < 100 | < 100 | < 100 | – | – | – | – | – | – | – | –
Cc1c(O)c(-c2ncc3c(=O)n(C45CC(N)(C4)C5)ccc3n2)cc2cn(C)nc12 [Compound 1322] | 1000 to 10000 | > 10000 | 1000 to 10000 | 1000 to 10000 | – | – | – | – | – | – | – | –
Cc1cn2cc(-c3ncc4c(=O)n(C5CCNCC5)c(C)cc4n3)cc(F)c2n1 [Compound 1327] | 100 to 1000 | > 10000 | 100 to 1000 | > 10000 | – | – | – | – | – | – | – | –
Cc1cn2nc(-c3cc4ncn(C5CCNCC5)c(=O)c4cc3O)cc(C)c2n1 [Compound 503, 7-{2,8-dimethylimidazo[1,2-b]pyridazin-6-yl}-6-hydroxy-3-(piperidin-4-yl)quinazolin-4-one] | < 100 | < 100 | 1000 to 10000 | 100 to 1000 | – | – | – | – | – | – | – | –
Cc1c(O)c(-c2ncc3c(=O)n(C45CCC(N)(CC4)CC5)ccc3n2)cc2cn(C)nc12 [Compound 1323] | < 100 | 1000 to 10000 | < 100 | > 10000 | – | – | – | – | – | – | – | –
Cn1cc2nc(-c3cc(F)c4c(=O)n(C5CCNC6(CC6)C5)ncc4c3)ccc2n1 (stereo not shown) [Compound 563] | 100 to 1000 | 100 to 1000 | 100 to 1000 | 100 to 1000 | – | – | – | – | – | – | – | –
Cn1cc2cc(-c3ccc4c(=O)n(C5CCNCC5)ccc4n3)c(O)cc2n1 [Compound 1239, 2-(6-hydroxy-2-methyl-2H-indazol-5-yl)-6-(piperidin-4-yl)-1,6-naphthyridin-5(6H)-one] | < 100 | < 100 | < 100 | < 100 | – | – | – | – | – | – | – | –
Cc1c(O)c(-c2ncc3c(=O)n([C@@H]4CC[C@H](N)C4)ccc3n2)cc2cn(C)nc12 [Compound 1333] | 100 to 1000 | 100 to 1000 | 100 to 1000 | 1000 to 10000 | – | – | – | – | – | – | – | –
COc1c(-c2ccc3c(=O)n(C4CCNCC4)cnc3n2)cc2cn(C)nc2c1C [Compound 506, 7-(6-methoxy-2,7-dimethylindazol-5-yl)-3-(piperidin-4-yl)pyrido[2,3-d]pyrimidin-4-one] | > 10000 | > 10000 | > 10000 | > 10000 | – | – | – | – | – | – | – | –
Cc1nc2c(C)cc(-c3cc(O)c4c(=O)n(C5CCNC6(CC6)C5)ncc4c3)cc2o1 (stereo not shown) [Compound 564] | 100 to 1000 | 100 to 1000 | 100 to 1000 | 100 to 1000 | – | – | – | – | – | – | – | –
Cc1cn2cc(-c3cc(F)c4c(=O)n(C5CCNC5)cnc4c3)cc(F)c2n1 (stereo not shown) [Compound 344] | – | – | 1000 to 10000 | > 10000 | 1000 to 10000 | 1000 to 10000 | 1000 to 10000 | 100 to 1000 | 100 to 1000 | 100 to 1000 | < 100 | 1000 to 10000
